Experiments:
[1] = Fluorescence response of hCy-Tf-CA to O2·^− in ethanol-phosphate buffer
Procedure: (§1) 10 μL of probe stock solution (1 mM) was added to 1 mL of ethanol-phosphate buffer solution (ethanol/PBS=1/1, v/v, pH=7.4). To characterize the responsiveness of hCy-Tf-CA, 40 μL O2·^− stock solution (2.5 mM) was added to above solution.
The reaction system was prepared under the same experimental conditions. […] That is due to the nucleophilic O2·^− cleavage of trifluoromethonium sulfonate, which restored the strong electron-donating phenol and it-conjugation on the fluorophore. […] The probe hCy-Tf-CA is an enhanced fluorescence probe.
Under the same experimental conditions, 10 μL of probe stock solution (1 mM) was added to 1 mL of ethanol-phosphate buffer solution, the O2·^− titration experiment was then carried out. The fluorescence intensity at 730 nm were tested 10 minutes later. […] (FIGS. 4 and 5).

[2] = Photoacoustic response of hCy-Tf-CA to O2·^−; conditions: probe 10 μM, O2·^− 100 μM, 10 min
Procedure: as §1
The reaction system was prepared under the same experimental conditions. […] The photoacoustic signal of hCy-Tf-CA only at 710 nm is very weak (FIG. 3).
Under the same experimental conditions, 10 μL of probe stock solution (1 mM) was added to 1 mL of ethanol-phosphate buffer solution, the O2·^− titration experiment then was carried out and the photoacoustic intensity at 710 nm were tested 10 minutes later.

[3] = Selective response: fluorescence against potential interferents; conditions: probe 10 μM
Procedure: The specificity of hCy-Tf-CA was determined against various potential interferents (Na^+, K^+, Ca^2+, Mg^2+, Zn^2+, Cu^2+, HS^−, HClO, H2O2, ·OH, ONOO^−, glucose, glutathione, cysteine, vitamin C, nitroreductase, alkaline phosphatase, β-galactosidase and leucine aminopeptidase). Under the same experimental conditions, 10 μL of probe stock solution (1 mM) was added to 1 mL of ethanol-phosphate buffer solution. Then stock solutions of various potential interferents were respectively added to above solution, then the fluorescence intensity at 730 nm was tested. […] Therefore, these potential interferents barely effect on the selective response to O2·^−, implying that the probe hCy-Tf-CA prepared by the invention has good selectivity.

[4] = system: HepG2 cells; experiment: Biocompatibility study, CCK-8 assay; assay type: cell-based; conditions: 24 h exposure to 10 μM
Procedure: Inspired by the excellent responsiveness of the probe hCy-Tf-CA to O2·^−, its biocompatibility and potential for further applications in living cells were assessed. HepG2 cells were plated in a 96-well plates at […] and incubated overnight in the cell incubator. Then the cells were washed with culture medium and incubated with various concentrations of hCy-Tf-CA (1, 2, 4, 8, 10 μM) at 37° C. for 24 h. After removing the above solution, CCK-8 reagent diluted with culture medium was added to each well and incubated at 37° C. for 60 min. Finally, the absorbance was finally measured at 450 nm by a microplate reader. Cell viability was calculated using the following formula:
Calculation of cell viability: Cell viability (%)=(Aexperimental group−Ablank group)/(Acontrol group−Ablank group)×100%.

[5] = system: HepG2 cells; experiment: Fluorescence imaging of endogenous O2·^− in HepG2 cells; assay type: cell-based
Procedure: To evaluate the capacity of hCy-Tf-CA to image O2·^− fluctuation in living cells, HepG2 cells were plated in a glass-bottom dish for 24 h to 80% density before the experiment. Cell fluorescence imaging of hCy-Tf-CA was divided into five groups. In the first group, hCy-Tf-CA (10 μM) was incubated with cells for 30 min. In the second group, cells were pretreated with lipopolysaccharide (LPS, 1 μg/mL) and interferon-gamma (IFN-γ, 50 ng/mL) for 12 h, then washed twice with PBS buffer before incubating with hCy-Tf-CA (10 μM) for 30 min. In the third group, cells were pretreated with LPS (1 μg/mL), IFN-γ (50 ng/mL) and 2,2,6,6-tetramethylpiperidine-N-oxyl (TEMPO, 300 μM) for 12 h, then washed twice with PBS buffer before incubating with hCy-Tf-CA (10 μM) for 30 min. In the fourth and fifth groups, cells were pretreated with H2O2 or Na2SO3 (100 μM) for 30 min, then washed twice with PBS buffer before incubating with hCy-Tf-CA (10 μM) for 30 min. The cells were washed 3 times with PBS buffer before cell imaging. Fluorescence images of the cells were captured by a Nikon AX R microscope with DAPI channel (λex'404 nm, λem=425-475 nm) and Cy5.5 channel (λex=639 nm, λem=663-738).

[6] = system: mouse model of drug-induced hepatic inflammation; experiment: Fluorescence/photoacoustic dual-modal imaging of drug-induced (APAP) hepatic inflammation; assay type: in vivo, Balb/c female mice
Procedure: In order to visually detect hepatic O2·^− concentration and drug-induced hepatic inflammation by fluorescence/photoacoustic dual-modal imaging, Balb/c female mice were intraperitoneally injected with overdose of APAP (300 mg/Kg) to cause drug-induced hepatic inflammation, and PBS injected mice served as the control group. The probe hCy-Tf-CA (50 μM, 100 μL) were administrated intravenously for in vivo fluorescence/photoacoustic dual-modal imaging. Images at predetermined time points were recorded on IVIS imaging system (Perkin Elmer, λex=675 nm, λem=760 nm) and InVision 256-TF imaging system (iThera Medical, λex=710 nm).

[7] = system: mouse model of autoimmune hepatitis; experiment: Fluorescence/photoacoustic dual-modal imaging of autoimmune hepatitis (Con A); assay type: in vivo, Balb/c female mice
Procedure: In order to visually detect autoimmune hepatitis by fluorescence/photoacoustic dual-modal imaging, Balb/c female mice were intravenously injected with a single dose Con A (20 mg/Kg, dissolved in 100 μL PBS) for 2 h to induce early autoimmune hepatitis, and the remaining mice were treated with PBS solution as controls. hCy-Tf-CA was then intravenously injected into mice for in vivo imaging, and representative NIRF/PA dual-modal images of different treated mice were recorded at chosen times. Images at predetermined time points were recorded on IVIS imaging system (Perkin Elmer, λex=675 nm, λem=760 nm) and InVision 256-TF imaging system (iThera Medical, λex=710 nm).

For `C[C@H](CCC(=O)NCCC[N+]1=C(/C=C/C2=C3Oc4cc(OS(=O)(=O)C(F)(F)F)c(Cl)cc4C=C3CCC2)C(C)(C)c2c1ccc1ccccc21)[C@H]1CC[C@H]2[C@@H]3[C@H](O)C[C@@H]4C[C@H](O)CC[C@]4(C)[C@H]3C[C@H](O)[C@]12C` [hCy-Tf-CA], the “O2·^− concentration at which fluorescence intensity reached a plateau” value ([1]; probe 10 μM, 10 min, at 740 nm as printed) was 100 µM, the “fluorescence intensity at 730 nm increase compared with probe alone” value ([1]; probe 10 μM, O2·^− 100 μM, 10 min, λex=680 nm, ethanol/PBS=1/1, pH=7.4) was 17 fold and the “fluorescence intensity increase after reaction with O2·^−” value ([1]; summary statement) was 17 times. The “photoacoustic signal enhancement at 710 nm after treatment with O2·^−” value [2] was 7 fold, the “fluorescence response to O2·^− in the selectivity test” value ([3]; 730 nm) was “significant response” and the “fluorescence response at 730 nm to potential interferents” value ([3]; analytes 100 μM, enzyme 0.1 U·mL^−1) was “barely respond”. The cell viability [4] was “more than 90%”, the “intracellular fluorescence after LPS/IFN-γ in the presence of TEMPO” value ([5]; HepG2, LPS/IFN-γ plus TEMPO 300 μM for 12 h, probe 10 μM 30 min) was “largely suppressed” and the “intracellular fluorescence, normal conditions” value ([5]; HepG2, probe 10 μM, 30 min, no pretreatment) was “weak fluorescence”. The “fluorescence fluctuations in H2O2-treated or SO3^2−-treated cells” value ([5]; HepG2 pretreated with H2O2 or Na2SO3 100 μM for 30 min, probe 10 μM 30 min) was “negligible”, the “intracellular fluorescence intensity after LPS/IFN-γ” value ([5]; HepG2 pretreated with LPS 1 μg/mL and IFN-γ 50 ng/mL for 12 h, probe 10 μM 30 min) was “significantly increased” and the “ex vivo hepatic fluorescence signal, APAP-treated mice versus health mice” value ([6]; 2 h after intravenous administration) was “obviously higher”. The “ex vivo organ distribution of fluorescence signal” value ([6]; 2 h after intravenous administration, liver versus heart, spleen, lung and kidney) was “mainly located in the liver”, the “in vivo fluorescence signal intensity, APAP-treated mice versus control mice” value ([6]; 2 h post-injection, probe 50 μM 100 μL i.v., APAP 300 mg/Kg i.p.) was “significantly higher” and the “photoacoustic signal in the liver, APAP-treated mice versus healthy mice” value ([6]; λex=710 nm, cross-sectional images) was “significantly higher”. The “in vivo fluorescence signal intensity in the liver region of Con A-treated mice over time” value ([7]; Con A 20 mg/Kg i.v. for 2 h, probe i.v.) was “gradually enhanced”, the “rate of increase of hepatic photoacoustic signal, Con A-treated mice versus control mice” value ([7]; after injection of probe) was “increased faster” and the “photoacoustic signal in the liver, Con A-treated mice versus healthy mice” value ([7]; at 2 h, λex=710 nm) was “obviously higher”. For the same compound, the “location of fluorescence signals (ex vivo)” value ([7]; both groups (Con A-treated and control)) was “mainly located in the liver” and the “ex vivo fluorescence signals, Con A-treated mice versus control mice” value ([7]; mouse, in vivo) was “apparently brighter”.

From US20240165272A1, “Liver-targeted fluorescence/photoacoustic dual-modal probe for early detecting drug-induced hepatic inflammation and autoimmune hepatitis” (BEIJING UNIVERSITY OF TECHNOLOGY, priority 2022, published 2024)
